The text below walks through data of PMC5045412, “Inhibition of pro-HGF activation by SRI31215, a novel approach to block oncogenic HGF/MET signaling” (Oncotarget, 2016).

SMILES strings stand for the structures.

The target of one assay is T1, HGFA (Homo sapiens, UniProt Q04756).
T1 construct: purchased R&D Systems
T1 sequence (Q04756 373-655): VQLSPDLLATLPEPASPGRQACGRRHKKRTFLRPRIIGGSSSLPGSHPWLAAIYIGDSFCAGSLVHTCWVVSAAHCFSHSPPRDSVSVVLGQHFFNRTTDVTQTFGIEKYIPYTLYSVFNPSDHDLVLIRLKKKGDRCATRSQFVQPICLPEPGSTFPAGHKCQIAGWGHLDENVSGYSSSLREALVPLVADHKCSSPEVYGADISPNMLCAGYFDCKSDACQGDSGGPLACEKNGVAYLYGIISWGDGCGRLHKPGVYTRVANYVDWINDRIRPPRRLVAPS
Briefly: Protease panel, FRET peptide substrate. The format is biochemical. As for the experimental part:
(§1) The inhibitory activity of SRI 31215 was tested in a panel of six proteases, which included matriptase, hepsin, HGFA, trypsin, thrombin and coagulation factor Xa. All six enzymes were purchased from R&D Systems. The assay buffer used was 50 mM Tris, 20 mM NaCl, 0.01% Tween 20, pH 8.0. The substrate was a custom FRET peptide based on the pro-HGF cleavage sequence (H2N-(EEdans)GKQLRVVNGG(KDabcyl)-amide) pre- pared by New England Peptide. All measurements were made using an Aminco-Bowman Series 2 Luminescence Spectrometer.

Another assay has as its target T2, hepsin (Homo sapiens, UniProt P05981).
T2 construct: purchased R&D Systems
Briefly: Protease panel, FRET peptide substrate. The class given is biochemical. How it is done:
as §1

A further assay addresses T3, matriptase (Homo sapiens, UniProt Q9Y5Y6).
T3 construct: purchased R&D Systems
T3 sequence (Q9Y5Y6 1-855): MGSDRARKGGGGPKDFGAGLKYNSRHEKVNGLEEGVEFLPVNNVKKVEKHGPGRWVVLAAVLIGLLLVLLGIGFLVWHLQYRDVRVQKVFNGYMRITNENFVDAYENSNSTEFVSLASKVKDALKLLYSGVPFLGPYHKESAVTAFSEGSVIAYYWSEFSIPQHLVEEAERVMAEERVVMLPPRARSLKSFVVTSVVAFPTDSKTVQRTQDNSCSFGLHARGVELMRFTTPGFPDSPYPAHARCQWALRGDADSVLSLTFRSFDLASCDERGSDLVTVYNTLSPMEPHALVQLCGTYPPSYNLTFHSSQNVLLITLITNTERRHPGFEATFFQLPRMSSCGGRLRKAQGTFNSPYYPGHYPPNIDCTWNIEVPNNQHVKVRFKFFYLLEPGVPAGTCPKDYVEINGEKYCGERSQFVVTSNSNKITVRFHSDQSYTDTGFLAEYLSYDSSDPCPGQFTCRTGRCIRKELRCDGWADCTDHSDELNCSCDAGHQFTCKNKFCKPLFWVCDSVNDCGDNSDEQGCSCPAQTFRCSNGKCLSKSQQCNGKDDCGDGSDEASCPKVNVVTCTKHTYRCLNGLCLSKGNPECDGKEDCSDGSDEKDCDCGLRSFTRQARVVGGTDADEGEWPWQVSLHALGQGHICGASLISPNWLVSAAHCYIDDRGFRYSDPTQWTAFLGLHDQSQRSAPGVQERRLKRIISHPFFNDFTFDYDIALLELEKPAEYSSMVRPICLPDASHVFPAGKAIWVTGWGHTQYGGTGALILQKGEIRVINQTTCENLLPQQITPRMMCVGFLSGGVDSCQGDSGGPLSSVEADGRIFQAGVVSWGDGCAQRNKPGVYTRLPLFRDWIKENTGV
Description: Protease panel, FRET peptide substrate. The class given is biochemical. As for the experimental part:
as §1

For the next assay, the target named is T4, thrombin (Homo sapiens, UniProt P00734).
T4 construct: purchased R&D Systems
Description: Protease panel, FRET peptide substrate. The class given is biochemical. How it is done: as §1

A further assay concerns trypsin. Briefly: Protease panel, FRET peptide substrate. The class given is biochemical. As for the experimental part: as §1
The next assay has as its system DU145 cells. Also noted: method as in PMID 26985294. As to conditions: dose-dependent; cited from earlier work.

T2 sequence (P05981 whole entry): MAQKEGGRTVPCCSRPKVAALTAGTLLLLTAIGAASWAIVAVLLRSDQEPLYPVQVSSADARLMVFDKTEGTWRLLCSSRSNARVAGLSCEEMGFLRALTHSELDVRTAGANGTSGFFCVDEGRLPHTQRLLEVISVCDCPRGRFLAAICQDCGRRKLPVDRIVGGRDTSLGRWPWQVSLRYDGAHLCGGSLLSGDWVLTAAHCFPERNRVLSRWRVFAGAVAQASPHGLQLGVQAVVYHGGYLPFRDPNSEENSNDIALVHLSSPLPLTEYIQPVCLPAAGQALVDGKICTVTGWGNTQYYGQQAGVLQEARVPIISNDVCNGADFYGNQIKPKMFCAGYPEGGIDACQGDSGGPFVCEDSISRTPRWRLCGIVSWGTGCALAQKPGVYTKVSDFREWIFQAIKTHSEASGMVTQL

Take `CC1CN(CC2CCN(Cc3ccccc3)CC2)C(=O)N(c2cccc(C(=N)N)c2)C1` (stereo not drawn) [SRI 31215, 3-(3-((1-benzylpiperidin-4-yl)methyl)-5-methyl-2-oxotetrahydropyrimidin-1(2H)-yl)benzimidamide]: the IC50 against HGFA is 300 nM; against hepsin, 650 nM; at matriptase it was 690 nM. In addition, the selectivity for thrombin entry on thrombin is listed as “acceptable”. Besides, the selectivity for trypsin result with trypsin is listed as “acceptable”. In the assay with DU145 cells, the “concentration at which biological activity (block of scattering) was detected” value was 1 μM.
